Results reported in patent US12180187B2, “1-phenyl-5-azinylpyrazolyl-3-oxyalkyl acids and their use for controlling unwanted plant growth” (BAYER AKTIENGESELLSCHAFT, priority 2019, dated 2024).

Legend:
POLCO [1] = experiment: Pre-emergence action at 320 g/ha against POLCO; format: in vivo, Fallopia convolvulus (Polygonum convolvulus); conditions: visual scoring after about 3 weeks vs untreated controls
In short: (§1)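 Greenhouse pot trial in which formulated compound (wettable powder or emulsion concentrate) goes onto the soil surface right after sowing, at a spray volume of 600 l/ha including 0.5% additive. Effects are judged visually after about 3 weeks (0% = like control, 100% = dead).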

KCHSC [2] = experiment: Post-emergence action against KCHSC, 1.28 kg/ha; format: in vivo, Bassia scoparia; conditions: dosage 1280 g/ha, visual rating about 3 weeks after treatment vs untreated controls (100% = plants died)
In short: (§2)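 Herbicidal action is estimated by eye after about three weeks under optimum greenhouse conditions, on a 0–100% scale against untreated plants. Compounds are applied post-emergence to one-leaf-stage weeds as aqueous WP or EC preparations containing 0.5% additive, sprayed at 600 L/ha.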

STEME [3] = experiment: Pre-emergence action against STEME, 1280 g/ha; format: in vivo, Stellaria media; conditions: scored visually after about 3 weeks vs untreated controls (100% = plants have died)
In short: (§3)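 Percent herbicidal effect, judged by eye relative to untreated pots around 3 weeks after soil-surface treatment. Application: formulated compound in water, 600 L/ha, 0.5% additive, on soil over sown seeds; greenhouse.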

DIGSA [4] = experiment: Post-emergence action at 320 g/ha against DIGSA; format: in vivo, Digitaria sanguinalis; conditions: dosage 320 g/ha, visual rating about 3 weeks after treatment vs untreated controls (100% = plants died)
From the text: (§4) Accordingly, the compounds of the invention have good herbicidal action against a broad spectrum of weed grasses and broad-leaved weeds and are therefore suitable for controlling unwanted vegetation by the post-emergence method. • b) Seeds of monocotyledonous and dicotyledonous weeds and crop plants are placed in sandy loam in plastic or organic planting pots, covered with soil and cultivated in a greenhouse under controlled growth conditions. 2 to 3 weeks after sowing, the test plants are treated at the one-leaf stage. The compounds of the invention, formulated in the form of wettable powders (WP) or as emulsion concentrates (EC), are then sprayed onto the green parts of the plants as aqueous suspension or emulsion with addition of 0.5% additive at a water application rate of 600 l/ha (converted). After the test plants have been kept in the greenhouse under optimum growth conditions for about 3 weeks, the activity of the preparations is rated visually in comparison to untreated controls. For example, 100% activity=the plants have died, 0% activity=like control plants. Tables 39 to 49 below show the effects of selected compounds of the general formula (I) according to Tables 1 and 2 on various harmful plants and at an application rate corresponding to 320 g/ha, which were obtained by the experimental procedure mentioned above.

AMARE [5] = experiment: Pre-emergence action at 320 g/ha against AMARE; format: in vivo, Amaranthus retroflexus; conditions: visual scoring after about 3 weeks vs untreated controls
In short: as §1

POAAN [6] = experiment: Pre-emergence action against POAAN, 1280 g/ha; format: in vivo, Poa annua; conditions: visual scoring after about 3 weeks vs untreated controls, 100% = plants have died, 0% = like control plants
In short: as §3

MATIN [7] = experiment: Pre-emergence action against MATIN, 1280 g/ha; format: in vivo, Tripleurospermum inodorum (Matricaria inodora); conditions: scored visually after about 3 weeks vs untreated controls (100% = plants have died)
In short: as §3

ALOMY [8] = experiment: Pre-emergence action against ALOMY, 1280 g/ha; format: in vivo, Alopecurus myosuroides; conditions: visual scoring after about 3 weeks vs untreated controls, 100% = plants have died, 0% = like control plants
In short: as §3

VERPE [9] = experiment: Pre-emergence action at 320 g/ha against VERPE; format: in vivo, Veronica persica; conditions: visual scoring after about 3 weeks vs untreated controls
In short: as §1

MATIN [10] = experiment: Pre-emergence action at 320 g/ha against MATIN; format: in vivo, Tripleurospermum inodorum (Matricaria inodora); conditions: visual scoring after about 3 weeks vs untreated controls
In short: as §1

AMARE [11] = experiment: Pre-emergence action against AMARE, 1280 g/ha; format: in vivo, Amaranthus retroflexus; conditions: scored visually after about 3 weeks vs untreated controls (100% = plants have died)
In short: as §3

MATIN [12] = experiment: Post-emergence action against MATIN, 1.28 kg/ha; format: in vivo, Tripleurospermum inodorum (Matricaria inodora); conditions: dosage 1280 g/ha, visual rating about 3 weeks after treatment vs untreated controls (100% = plants died)
In short: as §2

ECHGC = experiment: Pre-emergence action at 320 g/ha against ECHGC; format: in vivo, Echinochloa crus-galli; conditions: visual scoring after about 3 weeks vs untreated controls
In short: as §1

LOLRI [13] = experiment: Post-emergence action against LOLRI, 1.28 kg/ha; format: in vivo, Lolium rigidum; conditions: dosage 1280 g/ha, visual rating about 3 weeks after treatment vs untreated controls
In short: as §2

AVEFA [14] = experiment: Pre-emergence action at 320 g/ha against AVEFA; format: in vivo; conditions: visual scoring after about 3 weeks vs untreated controls
In short: as §1

LOLRI [15] = experiment: Pre-emergence action against LOLRI, 1280 g/ha; format: in vivo, Lolium rigidum; conditions: visual scoring after about 3 weeks vs untreated controls, 100% = plants have died, 0% = like control plants
In short: as §3

VERPE [16] = experiment: Pre-emergence action against VERPE, 1280 g/ha; format: in vivo, Veronica persica; conditions: scored visually after about 3 weeks vs untreated controls (100% = plants have died)
In short: as §3

POAAN [17] = experiment: Post-emergence action against POAAN, 1.28 kg/ha; format: in vivo, Poa annua; conditions: dosage 1280 g/ha, visual rating about 3 weeks after treatment vs untreated controls
In short: as §2

ECHCG [18] = experiment: Post-emergence action against ECHCG, 1.28 kg/ha; format: in vivo, Echinochloa crus-galli; conditions: dosage 1280 g/ha, visual rating about 3 weeks after treatment vs untreated controls
In short: as §2

DIGSA [19] = experiment: Pre-emergence action against DIGSA, 1280 g/ha; format: in vivo, Digitaria sanguinalis; conditions: visual scoring after about 3 weeks vs untreated controls, 100% = plants have died, 0% = like control plants
In short: as §3

ALOMY [20] = experiment: Post-emergence action against ALOMY, 320 g/ha; format: in vivo, Alopecurus myosuroides; conditions: dosage 320 g/ha, visual rating about 3 weeks after treatment vs untreated controls (100% = plants died)
From the text: as §4

SETVI [21] = experiment: Pre-emergence action at 320 g/ha against SETVI; format: in vivo, Setaria viridis; conditions: visual scoring after about 3 weeks vs untreated controls
In short: as §1

VIOTR [22] = experiment: Pre-emergence action at 320 g/ha against VIOTR; format: in vivo, Viola tricolor; conditions: dosage 320 g/ha
In short: as §1

DIGSA [23] = experiment: Post-emergence action against DIGSA, 1.28 kg/ha; format: in vivo, Digitaria sanguinalis; conditions: dosage 1280 g/ha, visual rating about 3 weeks after treatment vs untreated controls
In short: as §2

ALOMY [24] = experiment: Pre-emergence action at 320 g/ha against ALOMY; format: in vivo, Alopecurus myosuroides; conditions: scored visually after about 3 weeks vs untreated controls (100% = plants have died)
In short: as §1

LOLRI [25] = experiment: Pre-emergence action at 320 g/ha against LOLRI; format: in vivo, Lolium rigidum; conditions: visual scoring after about 3 weeks vs untreated controls
In short: as §1

SETVI [26] = experiment: Pre-emergence action against SETVI, 1280 g/ha; format: in vivo, Setaria viridis; conditions: visual scoring after about 3 weeks vs untreated controls, 100% = plants have died, 0% = like control plants
In short: as §3

STEME [27] = experiment: Post-emergence action against STEME, 1.28 kg/ha; format: in vivo, Stellaria media; conditions: dosage 1280 g/ha, visual rating about 3 weeks after treatment vs untreated controls (100% = plants died)
In short: as §2

ECHCG [28] = experiment: Pre-emergence action against ECHCG, 1280 g/ha; format: in vivo, Echinochloa crus-galli; conditions: visual scoring after about 3 weeks vs untreated controls, 100% = plants have died, 0% = like control plants
In short: as §3

SETVI [29] = experiment: Post-emergence action at 320 g/ha against SETVI; format: in vivo, Setaria viridis; conditions: visual rating about 3 weeks after treatment vs untreated controls
From the text: as §4

KCHSC [30] = experiment: Pre-emergence action against KCHSC, 1280 g/ha; format: in vivo, Bassia scoparia; conditions: scored visually after about 3 weeks vs untreated controls (100% = plants have died)
In short: as §3

DIGSA [31] = experiment: Pre-emergence action at 320 g/ha against DIGSA; format: in vivo, Digitaria sanguinalis; conditions: visual scoring after about 3 weeks vs untreated controls
In short: as §1

SETVI [32] = experiment: Post-emergence action against SETVI, 1.28 kg/ha; format: in vivo, Setaria viridis; conditions: dosage 1280 g/ha, visual rating about 3 weeks after treatment vs untreated controls
In short: as §2

AVEFA [33] = experiment: Post-emergence action at 320 g/ha against AVEFA; format: in vivo; conditions: visual rating about 3 weeks after treatment vs untreated controls
From the text: as §4

VIOTR [34] = experiment: Post-emergence action at 320 g/ha against VIOTR; format: in vivo, Viola tricolor; conditions: visual rating about 3 weeks after treatment vs untreated controls
From the text: as §4

AMARE [35] = experiment: Post-emergence action against AMARE, 1.28 kg/ha; format: in vivo, Amaranthus retroflexus; conditions: dosage 1280 g/ha, visual rating about 3 weeks after treatment vs untreated controls (100% = plants died)
In short: as §2

VERPE [36] = experiment: Post-emergence action against VERPE, 1.28 kg/ha; format: in vivo, Veronica persica; conditions: dosage 1280 g/ha, visual rating about 3 weeks after treatment vs untreated controls (100% = plants died)
In short: as §2

AMARE [37] = experiment: Post-emergence action at 320 g/ha against AMARE; format: in vivo, Amaranthus retroflexus; conditions: visual rating about 3 weeks after treatment vs untreated controls
From the text: as §4

POLCO [38] = experiment: Post-emergence action at 320 g/ha against POLCO; format: in vivo, Fallopia convolvulus (Polygonum convolvulus); conditions: visual rating about 3 weeks after treatment vs untreated controls
From the text: as §4

Structure (SMILES)	Pre-emergence action against POLCO in % (POLCO [1]) [%]	Pre-emergence action against STEME (STEME [3]) [%]	Pre-emergence action against AMARE in % (AMARE [5]) [%]	Pre-emergence action against POAAN (POAAN [6]) [%]	Pre-emergence action against MATIN (MATIN [7]) [%]	Pre-emergence action against VERPE in % (VERPE [9]) [%]	Pre-emergence action against AMARE (AMARE [11]) [%]	Post-emergence action against MATIN (MATIN [12]) [%]	Post-emergence action against LOLRI (LOLRI [13]) [%]	Pre-emergence action against LOLRI (LOLRI [15]) [%]	Pre-emergence action against VERPE (VERPE [16]) [%]	Post-emergence action against POAAN (POAAN [17]) [%]	Post-emergence action against ECHCG (ECHCG [18]) [%]	Post-emergence action against ALOMY (ALOMY [20]) [%]	Pre-emergence action against SETVI in % (SETVI [21]) [%]	Pre-emergence action against VIOTR in % (VIOTR [22]) [%]	Pre-emergence action at 320 g/ha against ALOMY in % (ALOMY [24]) [%]	Pre-emergence action against SETVI (SETVI [26]) [%]	Post-emergence action against STEME (STEME [27]) [%]	Pre-emergence action against ECHCG (ECHCG [28]) [%]	other results
CC(Oc1nn(-c2ccccc2F)c(-c2ccc(F)nc2)c1I)C(=O)O (stereo not drawn) [VII-118]	100	100	100	100	100	90	100	90	100	100	100	100	100	90	90	100	100	100	100	100	Post-emergence action against KCHSC (KCHSC [2]): 90%; Post-emergence action at 320 g/ha against DIGSA in % (DIGSA [4]): 90%; Pre-emergence action against ALOMY (ALOMY [8]): 100%; Pre-emergence action against MATIN in % (MATIN [10]): 90%; Pre-emergence action against ECHGC in % (ECHGC): 90%; Pre-emergence action against AVEFA in % (AVEFA [14]): 100%; Pre-emergence action against DIGSA (DIGSA [19]): 100%; Post-emergence action against DIGSA (DIGSA [23]): 100%; Pre-emergence action against LOLRI in % (LOLRI [25]): 100%; Post-emergence action against SETVI in % (SETVI [29]): 80%; Pre-emergence action against KCHSC (KCHSC [30]): 100%; Pre-emergence action against DIGSA in % (DIGSA [31]): 100%
CCOC(=O)COc1nn(-c2ccccc2F)c(-c2ccnc(F)c2)c1Br [VIII-002]	90	90	100	100	100	80	100	90	100	100	90	100	100	90	100	100	90	100	100	100	Post-emergence action against SETVI (SETVI [32]): 90%; Post-emergence action against AVEFA in % (AVEFA [33]): 90%; Post-emergence action against VIOTR in % (VIOTR [34]): 80%; Post-emergence action against AMARE (AMARE [35]): 100%; Post-emergence action against VERPE (VERPE [36]): 90%; Post-emergence action against AMARE in % (AMARE [37]): 80%; Post-emergence action against POLCO in % (POLCO [38]): 80%; Pre-emergence action against DIGSA in % (DIGSA [31]): 100%
